# Experimental data reported in US20030032632A1, “Pharmaceutical aerosol formulation of salmeterol and fluticasone propionate” (priority 1999, published 2003).
# Experiments:
# [1] = Solubility in ethanol/HFA134a and ethanol/HFA227 mixtures; type: physicochemical; details: mixtures of ethanol/HFA134a and ethanol/HFA227
# [2] = Chemical degradation on storage in ethanol/HFA134a solution; type: physicochemical
SMILES,solubility relative to racemic salmeterol xinafoate [1],chemical degradation on storage [2]
O=C(O)c1ccc2ccccc2c1O.OCc1cc(C(O)CNCCCCCCOCCCCc2ccccc2)ccc1O (stereo not shown) [R-salmeterol xinafoate],significantly more soluble,
"CCC(=O)O[C@]1(C(=O)SCF)[C@H](C)C[C@H]2[C@@H]3C[C@H](F)C4=CC(=O)C=C[C@]4(C)[C@@]3(F)[C@@H](O)C[C@@]21C [fluticasone propionate, (6a, 11b, 16a, 17a)-6,9-difluoro-11-hydroxy-16-methyl-3-oxo-17-(1-oxopropoxy) androsta-1,4-diene-17-carbothioic acid, S-fluoromethyl ester]",,quite stable to chemical degradation
"OCc1cc(C(O)CNCCCCCCOCCCCc2ccccc2)ccc1O (stereo not drawn) [salmeterol base, 4-hydroxy-α^1-[[[6-(4-phenylbutoxy)hexyl]amino]methyl]-1,3-benzenedimethanol]",substantially more soluble,
"OCc1cc(C(O)CNCCCCCCOCCCCc2ccccc2)ccc1O (stereo not drawn) [salmeterol, 4-hydroxy-α^1-[[[6-(4-phenylbutoxy)hexyl]amino]methyl]-1,3-benzenedimethanol]",,shows a tendency to exhibit chemical degradation
